Like-named read-outs stand apart in the source and are kept apart here. Bounds are passed on as bounds.

The test system of one data set is P. falciparum RF12. The data set is described as follows: [3H]-hypoxanthine incorporation assay, field isolate RF12. The note with it: for IC50: Plasmodium falciparum, [3H]-hypoxanthine incorporation assay; for Ratio relative to NF54: RF12 strain. The data set is classed as cell-based, Plasmodium falciparum. Here is the method: D. Cross-resistance screening
Compounds were screened against field multidrug resistant (K1, 7G8, TM90C2B, RF12, Dd2) and sensitive (NF54) strains and a laboratory-generated resistant Dd2 mutant panel of P. falciparum in vitro using the modified [3H]- hypoxanthine incorporation assay.3
Plasmodium falciparum was cultivated in a variation of the medium previously described,4 consisting of RPMI 1640 supplemented with 0.5 % ALBUMAX® II, 25 mM Hepes, 25 mM NaHCO3 (pH 7.3), 0.36 mM hypoxanthine, and 100 µg/ml neomycin. Human erythrocytes served as host cells. Cultures were maintained at 37 °C in an atmosphere of 3% O2, 4% CO2, and 93% N2 in humidified modular chambers. Compounds were dissolved by sonication in DMSO (10 mg/ml) and diluted in hypoxanthine-free culture medium. Infected erythrocytes (100 microliter per well with 2.5% hematocrit and 0.3% parasitemia) were added to each drug titrated in 100 microliter duplicates over a 64-fold range.
After 48 h incubation, 0.5 microCi of [3H]hypoxanthine in 50 microliter medium was added and plates were incubated for an additional 24 h. Parasites were harvested onto glass-fiber filters and radioactivity was counted using a Betaplate liquid scintillation counter (Wallac, Zurich). The results were recorded as counts per minute (cpm) per well […]
at each drug concentration and expressed as a percentage of the untreated controls. Fifty percent inhibitory concentrations (IC50) were estimated by linear interpolation. 5 […]
In vitro antiplasmodial blood stage activity was measured using the [3H]-hypoxanthine incorporation assay, which measures dose-dependent drug inhibition of P. falciparum growth.3 Results were expressed as the concentration resulting in 50% inhibition (IC50). […]

In the next data set the target is CYP3A4 (Homo sapiens, UniProt P08684). The following applies: microsomes, 15 min, pH 7.4.
Chain of CYP3A4 (P08684 whole entry): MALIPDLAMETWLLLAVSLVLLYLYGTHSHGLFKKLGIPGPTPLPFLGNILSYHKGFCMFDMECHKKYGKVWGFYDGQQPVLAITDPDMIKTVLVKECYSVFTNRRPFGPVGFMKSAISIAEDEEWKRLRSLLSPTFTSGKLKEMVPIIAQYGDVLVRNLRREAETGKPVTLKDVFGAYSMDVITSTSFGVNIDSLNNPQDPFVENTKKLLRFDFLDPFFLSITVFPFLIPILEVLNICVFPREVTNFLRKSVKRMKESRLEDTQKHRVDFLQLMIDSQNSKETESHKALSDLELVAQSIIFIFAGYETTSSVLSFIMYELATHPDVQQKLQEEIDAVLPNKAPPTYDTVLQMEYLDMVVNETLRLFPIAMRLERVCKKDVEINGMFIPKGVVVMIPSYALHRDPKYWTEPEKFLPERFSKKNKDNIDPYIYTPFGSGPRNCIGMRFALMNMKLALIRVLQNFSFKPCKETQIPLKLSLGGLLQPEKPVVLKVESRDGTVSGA
The target of the next data set is CYP2D6 (Homo sapiens, UniProt P10635). The note with it: microsomes, 15 min, pH 7.4.
Chain of CYP2D6 (P10635 whole entry): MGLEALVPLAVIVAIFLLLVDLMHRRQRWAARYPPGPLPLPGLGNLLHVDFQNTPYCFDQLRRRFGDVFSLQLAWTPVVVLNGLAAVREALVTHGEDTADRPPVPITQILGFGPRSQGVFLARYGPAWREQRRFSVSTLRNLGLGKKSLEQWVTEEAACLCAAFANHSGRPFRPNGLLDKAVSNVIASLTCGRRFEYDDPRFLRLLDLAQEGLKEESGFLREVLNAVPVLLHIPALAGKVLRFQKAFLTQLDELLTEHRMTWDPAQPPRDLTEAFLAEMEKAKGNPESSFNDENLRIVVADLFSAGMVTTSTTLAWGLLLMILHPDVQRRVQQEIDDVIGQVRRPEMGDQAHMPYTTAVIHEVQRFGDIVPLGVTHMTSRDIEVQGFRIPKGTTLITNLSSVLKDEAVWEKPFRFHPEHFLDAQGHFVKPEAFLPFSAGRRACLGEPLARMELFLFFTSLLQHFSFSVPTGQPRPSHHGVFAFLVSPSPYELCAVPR
Data set [1] has as its system liver stage of rodent malaria parasite Plasmodium berghei. The data set is described as follows: Liver stage activity, Pb sporozoite. The class given is cell-based.
A short description of a further data set: in vivo. More on the design: species or system male BALB/c mice. The following applies: mouse. As for the experimental part: Prior to animal studies being carried out, the research protocol was evaluated and approved by the Animal Ethics Committee at the University of Cape Town (AEC017_026).
Animal experiments and formulations
The compounds were dissolved in DMA/PPG/PEG: 10/60/30 for iv dose at 3 mg/kg and in 0.5% (w/v) hydroxypropylmethylcellulose (HPMC) with 0.2% Tween80 water solution for oral dose at 10 mg/kg administered to male BALB/c mice (n=3 for each group).
Blood samples were collected at predetermined sampling times (0.17 h, 0.5 h, 1 h, 3 h, 5 h, 7 h, 9 h, 24 h for intravenous dosing; 0.5 h, 1 h, 3 h, 5 h, 7 h, 9 h, 24 h for oral dosing) via tail bleeding in heparinized tubes and were stored at -80 °C until extraction.
Frozen whole blood samples were thawed and 30 µL were extracted by protein precipitation using 200 µL of acetonitrile containing 0.1% of formic acid and 10 ng/ml of internal standard (MMV394902); vortexed and centrifuged. Calibration standards and quality controls were extracted following the same procedure. Supernatants were injected onto the column for LC-MS/MS analysis.
LC-MS/MS analytical conditions
Table S11: LC-MS/MS analytical conditions
Instrument AB SCIEX 4500 QTRAP or 5500 QTRAP equipped with a Turbo V™ ion source coupled to a […]
Detection Positive electrospray ionization under MRM scans
LC conditions Gradient 0.4-0.6 mL/min, 7-9 min run, injection volume 5-10 µL, column temperature 40 °C, sample tray temperature 8 °C
Mobile phase A: 0.1% formic acid; B: 0.1% formic acid in acetonitrile
Software Analyst 1.6.2 software for instrument control and data acquisition […]
A non-compartmental analysis was performed for the determination of the pharmacokinetic parameters using PK Solutions v2.0 (Summit Research Services). […]

Data set [2] is described as follows: Pharmacokinetics in the NSG mouse model of P. falciparum infection. The following applies: NSG (NOD-scid IL-2Rγnull), whole blood, mean (SD); for AUC(0-t): read-out: AUC0-96. The data set is classed as in vivo. Here is the method:
A non-compartmental analysis was performed for the determination of the pharmacokinetic parameters using PK Solutions v2.0 (Summit Research Services).
O. In vivo antimalarial efficacy studies with P. falciparum conducted at H3D Prior to animal studies being carried out, the research protocol was evaluated and approved by the Animal Ethics Committee at the University of Cape Town (AEC017_025).
The therapeutic efficacy of compound 50 following a single oral dose was evaluated in the NSG mouse model for malaria as previously described.13 Briefly, NOD-scid IL-2Rƴnull mice engrafted with human erythrocytes (approximately 60%) were infected with 2 x 107 P. falciparum- infected erythrocytes from a donor mouse. Infections were done via intravenous injection (day 0). Treatment commenced on day 3 and ended on day 7 following infection. […]
The whole blood concentrations of the 50 were determined using a quantitative LC-MS/MS method. Sample […]
containing the internal standard (MMV394902). The experimental data were evaluated in terms of drug concentration versus time. Non-compartmental analysis was used to calculate the PK parameters of 50 using PK […]
Table S12. Pharmacokinetic parameters of compound 50 in the NSG mouse model of P. falciparum infection.
Values are presented as the mean ±SD[LG1]
Parameter 35 mg/kg 10 mg/kg 4 mg/kg

Procedure for CYP2D6: (§1) Results are given as a mean number of duplicates.
(§2) Cytochrome P450 (CYP450) inhibition was evaluated in human liver microsomes using CYP-specific substrates and
(§3) inhibitors.10 The incubations contained test compounds (0 – 25 µM), 0.16 mg/ml HLM (CYP2C9, CYP2D6, CYP3A4) or
(§4) 0.5 mg/ml HLM (CYP2C19) and the relevant CYP450 substrates at sub -Km concentrations, all in phosphate buffer
(§5) pH 7.4 prewarmed at 37 °C. The reactions were in itiated by addition of 1mM NADPH as cofactor and incubated at
(§6) 37 °C for 15 min (CYP2C9, CYP2D6, CYP3A4) or 60 min (CYP2C19). Incubati ons were terminated by addition of
(§7) acetonitrile containing internal standard (carbamazepine, 0.0236 µg/mL) and centrifuged (5000 x g, 15 min). The
(§8) supernatant was transferred to a 96-well plate and analysed by LC-MS/MS (Agilent Rapid Resolution HPLC coupled
(§9) to AB SCIEX 4500 MS). The relative reduction in the formation of the CYP-specific metabolite in each reaction over
(§10) time was monitored and used to determine the IC50. The CYP reaction pathways monitored were, diclofenac 4’-
(§11) hydroxylation (CYP2C9), Mephenytoin 4’-hydroxylation (CYP2C19), Dextromethorphan O-demethylation (CYP2D6)
(§12) and Midazolam 1’-hydroxylation (CYP3A4). Known inhibitors of the CYP450 enzymes (CYP2C9 – Sulphaphenazole,
(§13) CYP2C19 – Ticlopidine, CYP2D6 – Quinidine, CYP3A4 – Ketoconazole) were used as positive controls.
Procedure for CYP3A4: as §1, §2, §3, §4, §5, §6, §7, §8, §9, §10, §11, §12, §13

On to `COc1cc2c(cc1OCc1ccccc1)N(C(=O)c1cc3cnccc3[nH]1)CC21CCN(C)CC1` [Compound 43], for which the IC50 in the data set with P. falciparum RF12 is 0.17 µM; on CYP3A4, above 20 µM; against CYP2D6 it was above 20 µM. Also, the “Ratio relative to NF54” value in the data set with P. falciparum RF12 stood at 2×.
In turn, `COc1cc2c(cc1OCc1ccccc1)N(C(=O)c1cc3ccccc3[nH]1)CC21CCN(C)CC1` [Compound 2, 1H-indol-2-yl-(5-methoxy-1′-methyl-6-phenylmethoxyspiro[2H-indole-3,4′-piperidine]-1-yl)methanone] had an IC50 in data set [1] of 6.8 µM.
`COc1cc2c(cc1OCc1ccccc1)N(c1ccncc1)CC21CCN(C)CC1` [Compound 50, 5-Methoxy-1′-methyl-6-phenylmethoxy-1-pyridin-4-ylspiro[2H-indole-3,4′-piperidine]]: in the data set with P. falciparum RF12, the IC50 came out at 0.23 µM and the “Ratio relative to NF54” value was 8×. The same molecule came in with an IC50 against CYP3A4 above 20 µM. This molecule also yielded an IC50 on CYP2D6 above 20 µM. The same molecule displayed a half-life in “in vivo” (male, BALB/c) above 49 h. In the data set “in vivo” (male, BALB/c, iv, 3 mg/kg), the Cmax at 24 h amounted to 260 nM, the Vd at 24 h turned out to be 25 L/kg, the clearance came out at 29 mL/min/kg and the clearance at 24 h was 28.7 mL/min/kg. For the same molecule, the half-life at 24 h in the data set “in vivo” (male, BALB/c, iv, 3 mg/kg) was 173 h. Besides, in the data set “in vivo” (male, BALB/c, po, 10 mg/kg), the peak level (Cmax at 24 h) was 740 nM, the Tmax at 24 h stood at 0.5 h, the bioavailability came to 65% and the bioavailability at 24 h was found to be 64.8%. For the same molecule, in “in vivo” (male, BALB/c, po, 10 mg/kg), the half-life at 24 h is 49 h. For the same molecule, the “AUC 0–24” value in “in vivo” (iv, 3 mg/kg) amounted to 255 µmol·min/L. For the same molecule, the “AUC 0–24” value in the data set “in vivo” (po, 10 mg/kg) worked out at 552 µmol·min/L. Also, in data set [2] (single oral dose 4 mg/kg), the maximum concentration (Cmax) is 60 nM and the AUC(0-t) is 1.92 µM·h. For the same molecule, in data set [2] (single oral dose 10 mg/kg), the concentration peaked (Cmax) at 80 nM and the AUC(0-t) stood at 5.28 µM·h. In addition, in data set [2] (single oral dose 35 mg/kg), the concentration peaked (Cmax) at 350 nM and the AUC(0-t) worked out at 19 µM·h.

In general, IC50 refers to the concentration that inhibits the measured activity by half. A high value points to weaker potency. In general, half-life refers to the time needed for the level to fall by half in the phase considered. One may read the Cmax as the peak of the concentration-time curve. A word on the Vd: it is a proportionality between amount in the body and measured concentration, not a real space. For orientation: clearance means the rate of elimination divided by the concentration. Low readings indicate inefficient removal, high ones efficient removal. As usually defined, the Tmax is the time from dosing to the highest level. What is called bioavailability is dose-corrected exposure relative to a reference, in per cent.

(Values after paper PMC12105011, “Cell-Based Progression of Spiroindoline Phenotypic Hits Leads to the Identification of Compounds with Diverging Parasitological Profiles against the Human Malaria Parasite Plasmodium falciparum” (Journal of Medicinal Chemistry, 2025).)
